Results from patent publication US10307411B2, “Use of cotinine in treating or preventing neurogenesis deficits and enhancing neurogenesis” (Department of Veterans Affairs, priority 2014, dated 2019).

What was measured:
[1] = Novel location recognition test (NOL), spatial recognition memory in rats subjected to CMF chemotherapy; format: in vivo, Wistar female rats; settings: CMF-treated rats, cotinine 5 mg/kg oral
Method: Wistar female rats (2-4 months of age, 200-300 g) (n=10/group) were obtained from Harlan laboratories. Rats were housed in pairs, kept at 12 h light/12 h dark cycle and maintained in an air-conditioned room at a temperature of 21±1° C. and relative humidity of 60±10%. Food and water were available ad libitum. All rats were acclimated to the Veterinary Medical Unit for 1 week and handled daily. Weight was recorded every 2 days to assess for dehydration induced by the chemotherapy regime. All procedures were approved by the Institutional Animal Care and Use (IACUC) committee of the Bay Pines Veterans Affairs (VA) Healthcare System, in accordance with VA and The Guide for the Care and Use of Laboratory Animals. […]
This task evaluates spatial recognition memory and is based on the preferential exploration of a displaced object by rodents able to detect a novel placement of an object after remembering each object's original positions (Ennaceur A, Delacour J (1988) A new one-trial test for neurobiological studies of memory in rats. 1: Behavioral data. Behav Brain Res 31(1):47-59). […] The discrimination index (DI), which is a measure of spatial recognition memory, was calculated as follows: time spent exploring the object in the new location/total time spent exploring both objects.
Differences among the means were analyzed using one-way analysis of variance (ANOVA). […]

Chinese hamster ovary = settings: 0-1000 μg/ml; cited from earlier work
[2] = test system: inflammation genes in the hippocampus of stressed mice; experiment: Inflammatory response and Autoimmunity PCR array (RT-PCR) on hippocampus of mice subjected to forced swimming stress; format: in vivo
Text: Two-month-old male C57BU6J mice (The Jackson Laboratory, Bar Harbor, Me.), weighing 25-30 g were maintained on a 12-hours light/dark cycle (light on at 07:00) with ad libitum access to food and water and maintained at a regulated temperature of 25±1″C. Upon arrival mice were group-housed and acclimated for 7 days before any intervention.
Mice were randomly divided into three groups as follows: group 1 controls that were not exposed to stress (NES) and treated with vehicle (phosphate buffered saline, PBS); group 2 controls subjected to forced swimming stress (FSB) and treated with vehicle; group 3 subjected to forced swimming stress and treated with cotinine (FSA).
Cotinine ((5S)-1-methyl-5-(3-pyridyl) pyrrolidin-2-one; Sigma-Aldrich Corporation, St. Louis, Mo., USA) solutions were prepared by dissolving the powdered compound in sterile phosphate buffered saline (PBS), and vehicle (PBS). Mice were treated with vehicle or cotinine (5 mg/kg) via gavage. […] All investigators were blind to treatment groups and doses were chosen based on previously studies (Zeitlin, et al., (2012) Cotinine enhances the extinction of contextual fear memory and reduces anxiety after fear conditioning. Behav Brain Res, 228, 284-293.). Treatments were administered for 7 days before the induction of stress. For all animals, treatment continued from the onset of treatment until euthanasia.
To induce chronic stress, mice were subjected to repetitive forced swimming (FS) for six consecutive days, for six minutes each day, as described previously (Furukawa-Hibi, et al., (2011) The hydrophobic dipeptide Leu-lie inhibits immobility induced by repeated forced swimming via the induction of BDNF. Behav Brain Res. 2011 Jul. 7; 220(2):271-280). Each mouse was placed in an inescapable transparent plastic cylinder (40 centimeters (cm) high×20 cm in diameter) filled with water to a depth of 30 cm, for six minutes. Water temperature was maintained at 24-25° C. and water was changed between all trials. In all cases, following exposure, animals were retrieved, dried with a hand towel and returned to their home cages. Mice assigned to NES control group were removed from the animal housing facility and taken to the behavioral testing room during the same period of time than FS mice, but remained in their home cages during the FS period. In all experiments, no mice needed assistance to avoid drowning.
Following behavioral experimentation, euthanasia was performed via cervical dislocation under anesthesia with isofluorane (4% induction, 2% maintenance) by investigators not assigned to prior work with the mice blinded to the treatments. Whole brains were collected and immediately stored frozen at −80° C.
The hippocampi were dissected on ice and placed into RNAlater tubes (Life Technologies; Thermo Fisher Scientific, Waltham, Mass.). RNAlater is a proprietary solution which protects RNA in tissue samples from degradation to allow for analysis at a later date. RNase free conditions were created and maintained throughout the procedure by washing labware in a 0.1% DEPC solution followed by rinsing with RNase free water. Total RNA extraction and purification was performed using RNeasy Lipid Tissue Extraction Kit (Qiagen N.V., Venlon NL). Sample homogenization was performed using Kontes Pellet Pestle Cordless Motor and/or 20 gauge needle and syringe. Samples were extracted using a Qiazol/Chloroform extraction. The samples were purified on an RNeasy spin column using multiple washes. An on-column DNase incubation was performed in order to remove contaminating DNA. The entire extraction and purification step was performed twice to remove all contaminating DNA for samples ran on the neurogenesis arrays. Samples were eluted in RNase free water.
Nucleic acid quantification was performed on the RNA, to determine how many microliters of sample to add to the cDNA reaction, as the reaction requires a specific concentration of RNA to achieve optimal results. […]

[3] = hippocampus, forced swimming stress, cotinine 5 mg/kg gavage vs stressed vehicle-treated (FSB)
[4] = stressed mouse, cotinine vs vehicle

CN1C(=O)CC[C@H]1c1cccnc1 [cotinine, (5S)-1-methyl-5-(3-pyridyl) pyrrolidin-2-one]
ability to discriminate between old and new location of objects (discrimination index) [1]: restored the ability
location discrimination level compared with control rats ([1]; p>0.05): indistinguishable from control rats
genotoxic effects, sister chromatid exchange (SCE) (Chinese hamster ovary): no genotoxic effects
number of inflammation genes differentially expressed ([2]; cut off of two-fold difference, stressed mouse treated with cotinine versus stressed mouse treated with vehicle): 10 genes
Fos expression decreased by ([2]; forced swimming + cotinine compared to forced swimming + vehicle): 2.5 fold
Complement component 3 (C3) decreased by ([2]; forced swimming + cotinine compared to stressed mouse treated with vehicle): 2.9 fold
C3 (Complement component 3) Fold regulation comparing to FSB [2, 3]: −2.89 fold
Ccl1 (Chemokine (C-C motif) ligand 1) Fold regulation comparing to FSB [2, 3]: 2.21 fold
Ccl2 (Chemokine (C-C motif) ligand 2) Fold regulation comparing to FSB [2, 3]: 2.46 fold
Ccl3 (Chemokine (C-C motif) ligand 3) Fold regulation comparing to FSB [2, 3]: −4.00 fold
Ccr2 (Chemokine (C-C motif) receptor 2) Fold regulation comparing to FSB [2, 3]: −2.87 fold
Ccr4 (Chemokine (C-C motif) receptor 4) Fold regulation comparing to FSB [2, 3]: 2.96 fold
Fos (FBJ osteosarcoma oncogene) Fold regulation comparing to FSB [2, 3]: −2.55 fold
Nos2 (Nitric oxide synthase 2, inducible) Fold regulation comparing to FSB [2, 3]: −3.93 fold
Tlr1 (Toll-like receptor 1) Fold regulation comparing to FSB [2, 3]: 2.32 fold
Tnfsf14 (Tumor necrosis factor (ligand) superfamily, member 14) Fold regulation comparing to FSB [2, 3]: 6.18 fold
inflammation genes analyzed that were down-regulated ([2]; stressed mice treated with cotinine vs stressed vehicle, hippocampus): 61%
Ccl3 change (down regulated by cotinine) [2, 4]: 2.8 fold
Ccr2 change (down regulated by cotinine) [2, 4]: 4.0 fold
